From US11324829B2, “Antiseptic agent comprising meglumine or salt thereof” (priority 2016, dated 2022)

Tested on: E. coli, P. aeruginosa, S. aureus, C. albicans, A. brasiliensis
Assay: Evaluation against category IA standard, Preservatives-Effectiveness Tests, Japanese Pharmacopoeia 16th edition (all 5 strains)
Assay type: cell-based
Settings: summary of Tables 1 to 3, against each of the strains
Method: The following strains were used as inoculum strains.
A test sample of each formulation was inoculated with an inoculum microorganism liquid so that the concentration of the microorganism liquid in the test sample was 10^5 to 10^6 cells/mL (for each of the 5 strains). Specifically, an inoculum microorganism liquid was prepared for each strain at 10^7 to 10^8 cfu/mL, and inoculated into a test sample of each of Examples 1 to 11 and Comparative Example 1, and uniformly mixed to obtain a sample, so that the inoculum microorganism liquid was at 10^5 to 10^6 cfu/mL. These samples were stored at 20 to 25° C. under a light shielding condition. At sampling points (after 14 days or 28 days), 1 mL of each sample was withdrawn with a micropipette to measure a viable cell count. […]
The test results in Tables 1 to 3 are each shown as the common logarithm value of the ratio (B/A) of a cell count (B) at the time of inoculation to a cell count (A) of viable cells. For example, the value “1” means that the measured viable cell count is as low as 10% of the inoculum cell count. Further, the formulations were evaluated whether they satisfied the standard of “category IA” according to the informative “Preservatives-Effectiveness Tests” defined in The Japanese Pharmacopoeia, 16th edition.

Structure (SMILES): CNC[C@H](O)[C@@H](O)[C@H](O)[C@H](O)CO [meglumine, Meglumine]
- Antiseptic effect (in words): alone has an antiseptic effect
